Here are results for one compound from patent US11420975B2, “Substituted imidazo[1,5-a]pyrazines as Bruton's tyrosine kinase inhibitors” (TRANSTHERA SCIENCES (NANJING), INC., priority 2018, dated 2022).

The target in data set [1] is T1, BTK(C481S) (Homo sapiens (Human), UniProt Q06187, C481S). The experiment in a line: In vitro inhibitory activity against BTK(C481S) enzyme (33P-ATP filter binding). The class given is biochemical. The settings on record: class symbols; read-out: IC50 BTK(C48IS).
Data set [2] addresses T1, BTK(C481S). The experiment in a line: pBTK inhibition in HEK293 cells transfected with BTK(C481S) (ELISA). Conditions: 2 h. The class given is cell-based. The procedure: For positive (high signal) controls, cells were treated with 0.5% DMSO alone. […] The absorbance was read at 450 nm. • Based on the absorbance readings of the positive and negative control values, the % inhibition value was calculated according to the following formula: (% INH=((positive control−sample)/(positive control−negative control))×100. • The Z′ value was calculated based on the following formula: 1−((3×standard deviation of positive+3×standard deviation of negative)/(mean positive−mean negative)). • The […] was plotted using GraphPad Prism. • IC50 values were determined after sigmoidal dose-response curve fitting.
In general terms: In an ELISA, binding on a coated surface is turned into a signal by an enzyme label.

A further data set deals with TMD-8. As to the kind of experiment: In vitro tumor cell proliferation inhibition, TMD-8 (CellTiter-Glo). The settings on record: Homo sapiens, TMD8; TMD-8 cells, 72 h. It counts as cell-based. The method, then:
(1) Method • The tumor cell line (TMD-8/OCY-LY10) was suspended in RPMI1640+FBS10% and cultured in an incubator (37° C., 5% CO2). Cells were passaged periodically, and cells at logarithmic growth phase were collected for plating. • Cell staining was performed with trypan blue and viable cells were counted. • Cell concentration was adjusted to 7000 cells/well with medium. • 90 μL of cell suspension was added to a 96-well plate and cell-free culture medium was added to the blank control wells. • Cells in the 96-well plate were incubated overnight in an incubator (37° C., 5% CO2, 100% relative humidity). • Preparation of 400× compound storage plates: test compounds and reference drug were each dissolved in DMSO and 3× diluted from the highest concentration (400 μM) to the lowest concentration (0.61 μM). • Preparation of 10× compound working solutions: 78 μL of cell culture medium was added to a V-bottom 96-well plate, and 2 μL of the compound was pipetted from the 400× compound storage plate into the 96-well plate. Vehicle control wells and blank control wells were added with 2 μL of DMSO. […] Inhibition rates of compounds at different concentrations were calculated in Excel, followed by plotting the inhibition curves and calculating IC50 values with GraphPad Prism.
A general note: In ATP-based viability assays light output follows the ATP content of the culture.

A further data set has as its system TMD-8 xenograft tumor. As to the kind of experiment: TMD-8 xenograft tumor model. It counts as in vivo. Conditions: for TGI: bid. The method, then: CB17/SCID female mice with serious immune deficiency were purchased from Beijing Vital River Laboratory Animal Technology Co., Ltd. and bred in SPF animal houses. Human TMD-8 cells (Shanghai Junrui-UFBN1682) were cultured in an RPMI 1640 culture medium containing 10% fetal bovine serum, 100 U/mL penicillin and 100 μg/mL streptomycin through monolayer culture in vitro in an incubator (37° C., 5% C02). Routine treatment was performed twice a week for passaging. At a cell saturation of 80%-90% and a required number, the cells were harvested and counted. 0.2 mL (1×10^7) of TMD-8 cells (together with matrigel at a volume ratio of 1:1) were subcutaneously inoculated into the right back of each mouse, and the tumor size could be measured about one week after inoculation. Tumor size was measured using a vernier caliper and tumor volume was calculated using the following formula: tumor volume=(length×width^2)/2.

Data set [3] in a line: Pharmacokinetic study in male beagle dogs, intragastric. The class given is in vivo. The settings on record: dog, 5 mg/kg. The procedure:
Three adult male beagle dogs were fasted overnight before test. The test drugs were each suspended in a solution of 0.5% methylcellulose (MC) and 0.1% SDS in deionized water (w/w/v), and the suspension, each at a concentration of 1 mg/mL, was administered intragastrically at 5 mL/kg. Blood was collected 15 min, 30 min, 1 h, 2 h, 4 h, 6 h, 8 h and 24 h after administration. Animals were lightly anesthetized with chloral hydrate, and approximately 0.5 mL of whole blood was collected from the forelimb vein using a glass blood collection tube and placed in a heparin anticoagulant tube. The sample was centrifuged at 4° C./4200 rpm for 5 min. All plasma samples were stored in a refrigerator at −80±15° C. prior to analysis. An LC-MS/MS (Waters I Class UPLC-Xevo TQD tandem mass spectrometry) assay for the compounds was established prior to sample analysis. The collected plasma was quantitatively analyzed, plasma concentration-time data of animals were analyzed using WinNonlin (professional edition, version 5.2) software, a non-compartmental model was used for concentration analysis, and the pharmacokinetic parameters of the test compounds were calculated.

Where “and” joins values, the source holds several entries; their conditions need not be identical. Identical values can stand only once. Like-named read-outs stand apart in the source and are kept apart here. Where only a bound is given, the exact number is not on record here.

T1 sequence (Q06187 whole entry C481S): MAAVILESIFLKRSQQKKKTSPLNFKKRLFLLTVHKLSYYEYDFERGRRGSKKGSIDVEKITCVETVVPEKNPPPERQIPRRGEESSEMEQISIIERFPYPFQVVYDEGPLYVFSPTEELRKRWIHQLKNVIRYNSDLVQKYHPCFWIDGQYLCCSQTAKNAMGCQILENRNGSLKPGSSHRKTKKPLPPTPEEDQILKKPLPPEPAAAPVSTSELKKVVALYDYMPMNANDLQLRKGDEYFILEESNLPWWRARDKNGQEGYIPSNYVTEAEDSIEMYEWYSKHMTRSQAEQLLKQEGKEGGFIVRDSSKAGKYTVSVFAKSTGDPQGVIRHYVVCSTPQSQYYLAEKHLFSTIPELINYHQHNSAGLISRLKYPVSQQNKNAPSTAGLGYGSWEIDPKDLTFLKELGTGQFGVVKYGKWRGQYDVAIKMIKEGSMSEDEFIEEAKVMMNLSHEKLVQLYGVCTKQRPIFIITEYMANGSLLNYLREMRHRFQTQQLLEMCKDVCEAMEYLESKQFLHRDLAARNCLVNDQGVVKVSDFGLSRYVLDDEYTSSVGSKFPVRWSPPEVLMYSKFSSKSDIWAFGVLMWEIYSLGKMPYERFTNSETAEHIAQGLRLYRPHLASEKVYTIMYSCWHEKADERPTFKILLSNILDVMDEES

In general, IC50 refers to the midpoint of a concentration-inhibition curve. In general, Cmax refers to the peak of the concentration-time curve. A word on the AUC(0-inf): it is the area under the concentration-time curve extrapolated to infinity. Read a high AUC(0-inf) as more exposure. What is called Tmax is the time at which the peak concentration occurs. As usually defined, the half-life is the time in which the quantity being followed falls by half. A high value points to slow decline. With `Nc1nccn2c(C34CCC(NC(=O)CN5CCOCC5)(CC3)C4)nc(-c3ccc(C(=O)Nc4cc(C(F)(F)F)ccn4)cc3)c12` [Compound A-10-10, 4-(8-amino-3-(4-(2-morpholinoacetamido)bicyclo[2.2.1]heptan-1-yl)imidazo[1,5-a]pyrazin-1-yl)-N-(4-(trifluoromethyl)pyridin-2-yl)benzamide], the IC50 on BTK(C481S) [1] was at most 0.0001 µM; against BTK(C481S) [2], 0.066 µM and 0.063 µM; in the data set with TMD-8, 2.9 nM. Also, the “xenograft tumors disappeared (fraction)” value in the data set on TMD-8 xenograft tumor (50 mg/kg group, after 27 days of administration) is 5/8. Further, the “tolerance of tumor-bearing mice” value in the data set with TMD-8 xenograft tumor (all dosages) is “good tolerance”. The “effect on body weight of tumor-bearing mice” value in the data set with TMD-8 xenograft tumor (all treatment groups) was “no significant weight loss”. Also, the TGI was 94% in the data set with TMD-8 xenograft tumor (intragastric 25 mg/kg) and 104% with TMD-8 xenograft tumor (intragastric 50 mg/kg). The compound also displayed an AUC0-INF in data set [3] (p.o.) of 14.867 µg·h/mL. Further, the Cmax in data set [3] (p.o.) amounted to 0.641 µg/mL; in data set [3] (male, beagle, plasma, po, p.o., read-out: Cmax), 0.641 µg/mL. The compound also displayed an AUC(0-inf) in data set [3] (male, beagle, plasma, po) of 14.9 µg·h/mL. For the same compound, in data set [3] (male, beagle, plasma, po), the Tmax stood at 8 h. The compound further gave a half-life in data set [3] (male, beagle, plasma, po) of 14.2 h.
